# Test results taken from ChEMBL document CHEMBL5244230, “Artemisinin-derived hybrids and their anticancer activity” (Eur J Med Chem, 2020).
# Several values for one entry are separate records, joined by “and”; a condition that tells them apart may be missing. Identical values can stand only once.
# Columns and labels:
# A549 [1] = assay: Antiproliferative activity against human A549 cells assessed as reduction in cell viability measured for 24 hrs; format: functional, cell-based; conditions: A549, 24 h
# PC-3 [2] = assay: Antiproliferative activity against human PC-3 cells assessed as reduction in cell viability measured for 24 hrs; format: functional, cell-based; conditions: PC-3, 24 h
# SGC-7901 = assay: Antiproliferative activity against human SGC-7901 cells assessed as reduction in cell viability measured for 24 hrs; format: functional, cell-based; conditions: SGC-7901, 24 h
# HT-29 [3] = assay: Antiproliferative activity against human HT-29 cells; format: functional, cell-based
# MCF7 [4] = assay: Anticancer activity against human MCF7 cells; format: functional, cell-based
# EL4 = assay: Antiproliferative activity against mouse EL4 cells; format: functional, cell-based
# Leukemia cell = assay: Antiproliferative activity against human Leukemia cell; format: functional
# Melanoma cell line = assay: Antiproliferative activity against human Melanoma cell; format: functional
# Prostatic carcinoma cell = assay: Antiproliferative activity against human Prostatic carcinoma cell; format: functional
# Plasmodium falciparum [5] = assay: Antiplasmodial activity against Plasmodium falciparum HB3; format: functional, organism-based
# Plasmodium falciparum [6] = assay: Antiplasmodial activity against Plasmodium falciparum K1; format: functional, organism-based
# Colon cell line = assay: Antiproliferative activity against human Colon cell line; format: functional
# HepG2 = assay: Antiproliferative activity against human HepG2 cells; format: functional, cell-based
# HL-60 [7] = assay: Antiproliferative activity against human HL-60 cells; format: functional, cell-based
# HeLa [8] = assay: Cytotoxicity against human HeLa cells assessed as cell viability incubated for 48 hrs by MTT assay; format: functional, cell-based
# HCT-116 = assay: Antiproliferative activity against human HCT-116 cells; format: functional, cell-based
# HeLa [9] = assay: Antiproliferative activity against human HeLa cells; format: functional, cell-based
# [10] = Antiproliferative activity against human 1205Lu cells; format: functional, cell-based
# [11] = Anticancer activity against human Lu1 cells; format: functional, cell-based
# PC-3 [12] = assay: Antiproliferative activity against human PC-3 cells; format: functional, cell-based
# P388/ADR = assay: Antiproliferative activity against mouse P388/ADR cells assessed as reduction in cell viability measured after 72 hrs; format: functional, cell-based; conditions: 72 h
# HL-60 [13] = assay: Anticancer activity against human HL-60 cells; format: functional, cell-based
# HL-60 [14] = assay: Antiproliferative activity against human HL-60 cells assessed as reduction in cell viability measured after 72 hrs; format: functional, cell-based; conditions: HL-60, 72 h
# K562 = assay: Antiproliferative activity against human K562 cells; format: functional, cell-based
# A549 [15] = assay: Antiproliferative activity against human A549 cells; format: functional, cell-based
# NCI-H460 = assay: Antiproliferative activity against human NCI-H460 cells; format: functional, cell-based
# COLO 205 = assay: Antiproliferative activity against human COLO 205 cells; format: functional, cell-based
# [16] = Antiproliferative activity against mouse P388 cells assessed as reduction in cell viability measured after 72 hrs; format: functional, cell-based; conditions: 72 h
# P388 = assay: Anticancer activity against mouse P388 cells; format: functional, cell-based
# MCF7 [17] = assay: Anticancer activity against human MCF7 cells assessed as inhibition of cell growth; format: functional, cell-based
# MDA-MB-231 = assay: Antiproliferative activity against human MDA-MB-231 cells; format: functional, cell-based; conditions: mda-mb-231
# [18] = Antiproliferative activity against human U-87 MG cells; format: functional, cell-based, U-87MG ATCC
# HT-29 [19] = assay: Antiproliferative activity against human HT-29 cells assessed as reduction in cell viability; format: functional, cell-based
# A-431 = assay: Antiproliferative activity against human A-431 cells; format: functional, cell-based
# SMMC-7721 = assay: Antiproliferative activity against human SMMC-7721 cells; format: functional, cell-based
# HEK293 = assay: Antiproliferative activity against human HEK293 cells; format: functional, cell-based
# HSC-2 = assay: Cytotoxicity against human HSC-2 cells; format: functional, cell-based
# Ca9-22 = assay: Cytotoxicity against human Ca9-22 cells; format: functional, cell-based
smiles,measurement,setting,value
COc1ccc(Sc2cccc(C(=O)O[C@@H]3O[C@@H]4O[C@@]5(C)CC[C@H]6[C@H](C)[C@H](O)C[C@@H]([C@H]3C)[C@@]46OO5)c2)cc1,IC50,A549 [1],4.3 µM
same,IC50,PC-3 [2],4.3 µM
same,IC50,SGC-7901,4.3 µM
C[C@H]1[C@H](CCS(=O)(=O)CC[C@H]2O[C@@H]3O[C@@]4(C)CC[C@H]5[C@H](C)CC[C@@H]([C@H]2C)[C@@]35OO4)O[C@@H]2O[C@@]3(C)CC[C@H]4[C@H](C)CC[C@@H]1[C@@]24OO3,IC50,HT-29 [3],0.025 µM
same,IC50,MCF7 [4],0.025 µM
same,IC50,EL4,0.025 µM
COP(=O)(OCC[C@H]1[C@@H](C)O[C@@H]2O[C@@]3(C)CC[C@H]4[C@H](C)CC[C@@H]1[C@@]24OO3)OCC[C@H]1O[C@@H]2O[C@@]3(C)CC[C@H]4[C@H](C)CC[C@@H]([C@H]1C)[C@@]24OO3 (some centres undefined),GI50,Leukemia cell,< 0.01 µM
same,GI50,Melanoma cell line,< 0.01 µM
same,GI50,Prostatic carcinoma cell,< 0.01 µM
same,IC50,Plasmodium falciparum [5],90 pM
same,IC50,Plasmodium falciparum [6],90 pM
same,GI50,Colon cell line,< 0.01 µM
C[C@H]1[C@@H](NC(=O)CCC(=O)NO)O[C@@H]2O[C@@]3(C)CC[C@H]4[C@H](C)CC[C@@H]1[C@@]24OO3,IC50,MCF7 [4],1.28 µg/mL
same,IC50,HepG2,1.28 µg/mL
same,IC50,HL-60 [7],1.28 µg/mL
COc1ccc(Sc2cccc(C(=O)O[C@@H]3O[C@@H]4O[C@@]5(C)CC[C@H]6[C@H](C)[C@H](OC(=O)c7cccc(Sc8ccc(OC)cc8)c7)C[C@@H]([C@H]3C)[C@@]46OO5)c2)cc1,IC50,A549 [1],1.6 µM
same,IC50,PC-3 [2],1.6 µM
same,IC50,SGC-7901,1.6 µM
COc1ccc2c(N3CCN(CCCNCCO[C@H]4O[C@@H]5O[C@@]6(C)CC[C@H]7[C@H](C)CC[C@@H]([C@H]4C)[C@@]57OO6)CC3)c3ccc(Cl)cc3nc2c1,IC50,HeLa [8],0.8 µM
C[C@H]1[C@H](CCS(=O)(=O)CCCS(=O)(=O)CC[C@H]2O[C@@H]3O[C@@]4(C)CC[C@H]5[C@H](C)CC[C@@H]([C@H]2C)[C@@]35OO4)O[C@@H]2O[C@@]3(C)CC[C@H]4[C@H](C)CC[C@@H]1[C@@]24OO3,IC50,HT-29 [3],0.38 µM
same,IC50,MCF7 [4],0.38 µM
same,IC50,EL4,0.38 µM
C[C@H]1[C@@H](CCC(=O)Nc2ccc(F)cc2)O[C@@H]2O[C@]3(C)CC[C@H]4[C@H](C)CC[C@@H]1[C@@]24OO3,IC50,HCT-116,40 µM
same,IC50,HeLa [9],40 µM
same,IC50,[10],40 µM
C[C@H]1[C@@H](O)O[C@@H]2O[C@@]3(C)CC[C@H]4[C@H](C)CC[C@@H]1[C@@]24OO3 [ARTENIMOL],IC50,[11],39.9 µM
same,IC50,PC-3 [12],15.7 µM
same,IC50,P388/ADR,20.7 µM
same,IC50,MCF7 [4],39.9 µM
same,IC50,HL-60 [13],39.9 µM
same,IC50,HL-60 [14],0.299 µM
same,IC50,K562,15.7 µM
same,IC50,A549 [15],5.29 µM
same,IC50,NCI-H460,5.29 µM
same,IC50,COLO 205,15.7 µM
same,IC50,[16],1.5 µM
same,IC50,P388,39.9 µM
same,IC50,MCF7 [17],39.9 µM
same,IC50,MDA-MB-231,15.7 µM and 5.29 µM
same,IC50,[18],5.29 µM
same,IC50,HT-29 [19],5.29 µM
same,IC50,A-431,15.7 µM
same,IC50,SMMC-7721,0.4 µM
same,IC50,HEK293,15.7 µM
C[C@H]1[C@@H](CCC(=O)Nc2cnc3ccccc3c2)O[C@@H]2O[C@@]3(C)CC[C@H]4[C@H](C)CC[C@@H]1[C@@]24OO3,IC50,HSC-2,36.9 µM
same,IC50,Ca9-22,49.7 µM
C[C@H]1[C@@H](NC(=O)CCCCCCC(=O)NO)O[C@@H]2O[C@@]3(C)CC[C@H]4[C@H](C)CC[C@@H]1[C@@]24OO3 (racemic),IC50,MCF7 [4],1.28 µg/mL
same,IC50,HepG2,1.28 µg/mL
same,IC50,HL-60 [7],1.28 µg/mL
